The values below come from PubChem BioAssay AID1259407 (Chemical Carcinogenesis Research Information System (CCRIS), 2018).

In this data set the test system is CCRIS mutagenicity, Ames/micronucleus/aberration tests. The data set is described as follows: CCRIS mutagenicity studies.
Where [1] appears, read: Test System: AMES SALMONELLA TYPHIMURIUM, Strain/Indicator: TA100, Metabolic Activation: NONE, Method: STANDARD PLATE.
[2] abbreviates: Test System: AMES SALMONELLA TYPHIMURIUM, Strain/Indicator: TA98, Metabolic Activation: RAT, LIVER, S-9, AROCLOR 1254, Method: STANDARD PLATE.
[3] abbreviates: Test System: AMES SALMONELLA TYPHIMURIUM, Strain/Indicator: TA100, Metabolic Activation: RAT, LIVER, S-9, AROCLOR 1254, Method: STANDARD PLATE.
[4] abbreviates: Test System: AMES SALMONELLA TYPHIMURIUM, Strain/Indicator: TA98, Metabolic Activation: NONE, Method: STANDARD PLATE.
The mark [5] stands for this setting: Test System: AMES SALMONELLA TYPHIMURIUM, Strain/Indicator: TA1535, Metabolic Activation: NONE, Method: STANDARD PLATE.
[6] abbreviates: Test System: AMES SALMONELLA TYPHIMURIUM, Strain/Indicator: TA1535, Metabolic Activation: RAT, LIVER, S-9, AROCLOR 1254, Method: STANDARD PLATE.
[7] abbreviates: Test System: AMES SALMONELLA TYPHIMURIUM, Strain/Indicator: TA1537, Metabolic Activation: NONE, Method: STANDARD PLATE.
Where [8] appears, read: Test System: AMES SALMONELLA TYPHIMURIUM, Strain/Indicator: TA1538, Metabolic Activation: NONE, Method: STANDARD PLATE.

Activity calls are given as the source filed them. How the calls were made is not given here.

On to `Cc1cc(C)c(CN2C3c4ccccc4-c4ccccc4C32)c(C)c1` (centres undefined), for which the mutagenic call under setting [1] was “active; positive”.
`Cc1cc2nccnc2c2nc(N)n(C)c12`: under setting [2], the mutagenic call is “active; positive”.
In the case of `Cc1cc2c(cc1C)-c1ccccc1C2`, the mutagenic call by setting is: under setting [2], “inactive; negative”; under setting [3], “inactive; negative”.
Turning to `COC/C(=C/c1ccccc1)OC`, the mutagenic call reads like this: (Test System: AMES SALMONELLA TYPHIMURIUM, Strain/Indicator: TA97, Metabolic Activation: NONE, Method: STANDARD PLATE) “inactive; negative”; (Test System: AMES SALMONELLA TYPHIMURIUM, Strain/Indicator: TA97, Metabolic Activation: RAT, LIVER, S-9, AROCLOR 1254, Method: STANDARD PLATE) “inactive; negative”; under setting [4], “inactive; negative”; under setting [2], “inactive; negative”; under setting [1], “inactive; negative”; under setting [3], “inactive; negative”. For the same compound, the mutagenic call reads like this: under setting [5], “inactive; negative”; under setting [6], “inactive; negative”; under setting [7], “active; positive”; (Test System: AMES SALMONELLA TYPHIMURIUM, Strain/Indicator: TA1537, Metabolic Activation: RAT, LIVER, S-9, AROCLOR 1254, Method: STANDARD PLATE) “inactive; negative”; under setting [8], “inactive; negative”; (Test System: AMES SALMONELLA TYPHIMURIUM, Strain/Indicator: TA1538, Metabolic Activation: RAT, LIVER, S-9, AROCLOR 1254, Method: STANDARD PLATE) “inactive; negative”.
With `NC(=O)N(CCCCO)N=O`, the mutagenic call (Test System: E. COLI B, Strain/Indicator: H/R30R, Metabolic Activation: NONE) is “active; positive” and the mutagenic call (Test System: E. COLI B, Strain/Indicator: HS30R, Metabolic Activation: NONE) was “active; positive”.
On to `Oc1ccc2ccc3c4ccccc4ccc3c2c1`, for which the mutagenic call under setting [4] was “inactive; negative”, the mutagenic call under setting [1] was “inactive; negative” and the mutagenic call under setting [3] is “active; positive”.
Regarding `Fc1ccc2c3c(cccc13)-c1cc3ccccc3cc1-2`, under setting [3], the mutagenic call is “active; positive”.
On to `OOC1CCCc2ccccc21` (centres undefined), for which the mutagenic call under setting [4] was “inactive; negative”; the mutagenic call under setting [1] is “active; positive”; the mutagenic call (Test System: AMES SALMONELLA TYPHIMURIUM, Strain/Indicator: TA102, Metabolic Activation: NONE, Method: STANDARD PLATE) is “inactive; negative”.
Turning to `O=C(O)CN(CC(=O)O)C1C[C@H]1N(CC(=O)O)CC(=O)O` (some centres undefined), the mutagenic call (Test System: CHINESE HAMSTER V-79, Strain/Indicator: V-79/OUABAIN, Metabolic Activation: NONE, Method: STANDARD PLATE) is “active; positive” and the mutagenic call (Test System: UDS RODENT CELLS, Strain/Indicator: THY INCORP (NON-S-PHASE), Metabolic Activation: NONE, Method: AUTORADIOGRAPHY) is “active; positive”.
Consider `CC1(C)O[C@@H]1COc1c2occc2cc2ccc(=O)oc12`, for which the mutagenic call (Test System: AMES SALMONELLA TYPHIMURIUM, Strain/Indicator: TA92, Metabolic Activation: NONE, Method: SPOT TEST) is “inactive; negative”; the mutagenic call (Test System: AMES SALMONELLA TYPHIMURIUM, Strain/Indicator: TA92, Metabolic Activation: RAT, LIVER, S-9, AROCLOR 1254, Method: SPOT TEST) was “inactive; negative”; the mutagenic call (Test System: AMES SALMONELLA TYPHIMURIUM, Strain/Indicator: TA94, Metabolic Activation: NONE, Method: SPOT TEST) was “inactive; negative”; the mutagenic call (Test System: AMES SALMONELLA TYPHIMURIUM, Strain/Indicator: TA94, Metabolic Activation: RAT, LIVER, S-9, AROCLOR 1254, Method: SPOT TEST) is “inactive; negative”; the mutagenic call (Test System: AMES SALMONELLA TYPHIMURIUM, Strain/Indicator: TA97, Metabolic Activation: NONE, Method: SPOT TEST) was “inactive; negative”; the mutagenic call (Test System: AMES SALMONELLA TYPHIMURIUM, Strain/Indicator: TA97, Metabolic Activation: RAT, LIVER, S-9, AROCLOR 1254, Method: SPOT TEST) is “inactive; negative”. The mutagenic call is “inactive; negative” (Test System: AMES SALMONELLA TYPHIMURIUM, Strain/Indicator: TA98, Metabolic Activation: NONE, Method: SPOT TEST); “inactive; negative” (Test System: AMES SALMONELLA TYPHIMURIUM, Strain/Indicator: TA98, Metabolic Activation: RAT, LIVER, S-9, AROCLOR 1254, Method: SPOT TEST); “inactive; negative” (Test System: AMES SALMONELLA TYPHIMURIUM, Strain/Indicator: TA100, Metabolic Activation: NONE, Method: SPOT TEST); “inactive; negative” (Test System: AMES SALMONELLA TYPHIMURIUM, Strain/Indicator: TA100, Metabolic Activation: RAT, LIVER, S-9, AROCLOR 1254, Method: SPOT TEST); “inactive; negative” (Test System: AMES SALMONELLA TYPHIMURIUM, Strain/Indicator: TA102, Metabolic Activation: NONE, Method: SPOT TEST); “inactive; negative” (Test System: AMES SALMONELLA TYPHIMURIUM, Strain/Indicator: TA102, Metabolic Activation: RAT, LIVER, S-9, AROCLOR 1254, Method: SPOT TEST).
`C[N+](C)(C)Cc1ccccc1`: the mutagenic call is “inactive; negative” (Test System: AMES SALMONELLA TYPHIMURIUM, Strain/Indicator: TA97, Metabolic Activation: HAMSTER, LIVER, S-9, AROCLOR 1254 (10 OR 30%), Method: PREINCUBATION); “inactive; negative” (Test System: AMES SALMONELLA TYPHIMURIUM, Strain/Indicator: TA97, Metabolic Activation: NONE, Method: PREINCUBATION); “inactive; negative” (Test System: AMES SALMONELLA TYPHIMURIUM, Strain/Indicator: TA97, Metabolic Activation: RAT, LIVER, S-9, AROCLOR 1254 (10 OR 30%), Method: PREINCUBATION); “inactive; negative” (Test System: AMES SALMONELLA TYPHIMURIUM, Strain/Indicator: TA98, Metabolic Activation: HAMSTER, LIVER, S-9, AROCLOR 1254 (10 OR 30%), Method: PREINCUBATION); “inactive; negative” (Test System: AMES SALMONELLA TYPHIMURIUM, Strain/Indicator: TA98, Metabolic Activation: NONE, Method: PREINCUBATION); “inactive; negative” (Test System: AMES SALMONELLA TYPHIMURIUM, Strain/Indicator: TA98, Metabolic Activation: RAT, LIVER, S-9, AROCLOR 1254 (10 OR 30%), Method: PREINCUBATION). The mutagenic call by setting is: (Test System: AMES SALMONELLA TYPHIMURIUM, Strain/Indicator: TA100, Metabolic Activation: HAMSTER, LIVER, S-9, AROCLOR 1254 (10 OR 30%), Method: PREINCUBATION) “inactive; negative”; (Test System: AMES SALMONELLA TYPHIMURIUM, Strain/Indicator: TA100, Metabolic Activation: NONE, Method: PREINCUBATION) “inactive; negative”; (Test System: AMES SALMONELLA TYPHIMURIUM, Strain/Indicator: TA100, Metabolic Activation: RAT, LIVER, S-9, AROCLOR 1254 (10 OR 30%), Method: PREINCUBATION) “inactive; negative”; (Test System: AMES SALMONELLA TYPHIMURIUM, Strain/Indicator: TA1535, Metabolic Activation: HAMSTER, LIVER, S-9, AROCLOR 1254 (10 OR 30%), Method: PREINCUBATION) “inactive; negative”; (Test System: AMES SALMONELLA TYPHIMURIUM, Strain/Indicator: TA1535, Metabolic Activation: NONE, Method: PREINCUBATION) “inactive; negative”; (Test System: AMES SALMONELLA TYPHIMURIUM, Strain/Indicator: TA1535, Metabolic Activation: RAT, LIVER, S-9, AROCLOR 1254 (10 OR 30%), Method: PREINCUBATION) “inactive; negative”.
On to `CCc1ccc2c(c1[N+](=O)[O-])C(=O)c1ccccc1C2=O`, for which the mutagenic call under setting [4] is “inactive; negative”; the mutagenic call under setting [1] was “inactive; negative”; the mutagenic call under setting [3] is “active; positive”; the mutagenic call under setting [5] was “inactive; negative”; the mutagenic call under setting [6] is “inactive; negative”; the mutagenic call under setting [7] is “inactive; negative”. Under setting [8], the mutagenic call was “inactive; negative”.
As for `c1ccc2c(c1)cc1cccc3c4cccc5cccc(c54)c2c13`, for the setting “Test System: HUMAN H1A1V2 CELLS, Strain/Indicator: TK LOCUS, Metabolic Activation: NONE, Method: SUSPENSION/PLATE”, the mutagenic call was “active; positive”.
